Assay: Neurotoxicity assay: MTS viability of primary cortical neuronal cultures
Assay type: cell-based, mouse
Details: BL6Jx129sv, mouse, primary cortical neuronal cultures, Neuronal cells, read-out: Cytotoxicity (% viable at 1 and 10 uM); for viability at 4 days, 1 uM: test compound 1 uM; for viability at 4 days, 10 uM: test compound 10 uM
Description: Media was then replaced with Neurobasal media (Invitrogen Life Technologies) and B27 supplements (Invitrogen Life Technologies). Cultures were maintained at 37° C. in 5% CO2. Prior to experimentation, the culture medium was replaced with Neurobasal media and B27 minus antioxidants (Invitrogen Life Technologies).
Cell viability is determined using the MTS assay. Culture medium is replaced with fresh neurobasal medium plus B27 supplements minus antioxidants. 1/10th volume MTS solution (Cell Titre 96 Aqueous One, Promega Corporation) and incubated at 37° C., 2 hrs. 200 microlitre aliquots are measured with a spectrophotometer at 560 nm.
Neuronal cortical cells were cultured for five days as per Assay 2 in NB media and B27 supplement.
On day six the test compounds were added to the neuronal cell cultures in NB media and B27 supplement minus antioxidants.
Test compounds were dissolved in 100% DMSO to a concentration of 2.5 mM (10 mM if excess compound was weighed out per vial—then diluted to 2.5 mM). […] Test compounds were not added directly to cells, instead they were added to a 48 well ‘Drug Plate’ as comprised below:
The Drug Plate was incubated at 37° C. for 15 mins. 200 μl of each well was added in triplicate to the corresponding cell plate. The cell plate was incubated at 37 C, for 4 days.
On completion of the assay, 1/10 volume MTS was added per well of plate (i.e. 25 μl/250 μl). The plates were incubated at 37 C for 2 hrs, and then absorbance was read at 560 nm.

Structure (SMILES)	viability at 4 days, 1 uM [%]	viability at 4 days, 10 uM [%]
NC(=O)c1ccc2c(Cl)cc(Cl)c(O)c2n1	74	86
O=C(NCc1ccccn1)c1cc(O)c2cccc(O)c2n1	100	100
Nc1ccc2cccc(O)c2n1	95	48
Oc1cccc2ccc(CN(Cc3ccccn3)Cc3ccccn3)nc12	87	23
Oc1ccc(Cl)c2cccnc12	94	85
Oc1c(I)cc(I)c2cccnc12	91	95
Oc1c(Br)cc(-c2ccccc2)c2cccnc12	100	97
Oc1cccc2ccc(CN(Cc3ccccn3)Cc3c[nH]cn3)nc12	90	70
Oc1c(-c2cc3ccccc3s2)cc(Cl)c2cccnc12	87	32
O=Cc1ccccc1-c1cc(Cl)c2cccnc2c1O	109	99
O=C(c1ccc2cccc(O)c2n1)N(Cc1ccccn1)Cc1ccccn1	81	79
Oc1c(-c2ccc(F)cc2F)cc(Cl)c2cccnc12	90	42
Cc1ccccc1-c1cc(-c2ccccc2C)c2cccnc2c1O	93	34
O=C(NCCc1ccccn1)c1ccc2cccc(O)c2n1	95	93
CO/N=C/c1ccc2c(Cl)cc(Cl)c(O)c2n1	77	54
N#Cc1ccc2cccc(O)c2n1	94	97
NCCNC(=O)c1ccc2cccc(O)c2n1	106	96
Cc1cnc2c(O)c(Cl)cc(Cl)c2n1	94	87
CN(c1ccccn1)c1ccc2c(Cl)cc(Cl)c(O)c2n1	100	59
Oc1c(Br)cc(Br)c2cccnc12	100	94
Nc1ccc(O)c2ncccc12	108	71
Oc1cccc2ccc(-n3cncn3)nc12	102	97
Oc1c(-c2ccccc2)cc(-c2ccccc2)c2cccnc12	97	26
O=c1[nH]cnc2c(O)cccc12	101	89
Oc1cccc2ccc(CN(Cc3ccccn3)Cc3nccs3)nc12	97	38
Oc1c(Cl)cc(Cl)c2cc(Cl)cnc12	82	55
O=C(O)CNC(=O)c1cc(O)c2cccc(O)c2n1	98	94

Structure (SMILES)	viability at 4 days, 1 uM [%]	viability at 4 days, 10 uM [%]
COc1ccc(-c2cc(Cl)c3cccnc3c2O)cc1	97	31
O=S(=O)(O)c1cc(I)c(O)c2ncccc12	70	71
NCc1ccc2cccc(O)c2n1	101	97
O=C(NCCc1cnc[nH]1)c1cc(O)c2cccc(O)c2n1	100	100
Cc1ccccc1-c1cc(I)c(O)c2ncccc12	99	38
N=C(N)NCc1ccc2cccc(O)c2n1	100	89
O=C(Nc1nccs1)c1ccc2cccc(O)c2n1	100	100
Oc1c(-c2ccccc2C(F)(F)F)cc(Cl)c2cccnc12	96	93
CNCc1ccc2c(Cl)cc(Cl)c(O)c2n1	86	78
CC(=O)Nc1ccc2cccc(O)c2n1	93	89
O=C(NCc1ccccn1)c1ccc2cccc(O)c2n1	96	85
Cc1cccc(-c2ccc3cccc(O)c3n2)n1	91	58
Oc1cccc2ccc(CN(CCc3c[nH]cn3)Cc3nccs3)nc12	82	34
Cc1nccn1-c1ccc2cccc(O)c2n1	104	96
Cc1ccccc1-c1cc(Cl)c2cccnc2c1O	100	100
Oc1c(Cl)cc(-c2cccnc2)c2cccnc12	101	84
Cc1cnc(NC(=O)c2ccc3cccc(O)c3n2)s1	94	68
Cc1cnc2c(Cl)cc(Cl)c(O)c2n1	100	93
Oc1c(Cl)cc(Cl)c2cccnc12	98	75
Oc1c(-c2cccc(F)c2)cc(Cl)c2cccnc12	98	71
Oc1cccc2c(=S)n(Cc3ccccn3)cnc12	97	90
O=C(O)c1ccc2c(Cl)cc(Cl)c(O)c2n1	88	80
O/N=C/c1ccc2cccc(O)c2n1	100	95
O=c1c2c(Cl)cc(Cl)c(O)c2ncn1CC1CCNCC1	97	96
Oc1c(Cl)cc(Cl)c2ccc(-c3ccccn3)nc12	55	31
CN(C)c1ccc(-c2cc(Cl)c3cccnc3c2O)cc1	94	85
O=C(Nc1ccccc1O)c1ccc2cccc(O)c2n1	104	92

Structure (SMILES)	viability at 4 days, 1 uM [%]	viability at 4 days, 10 uM [%]
O=C(NCCc1c[nH]cn1)c1ccc2cccc(O)c2n1	100	100
Oc1c(I)cc(-c2ccccc2F)c2cccnc12	92	34
Oc1c(Br)cc(-c2cc(F)cc(F)c2)c2cccnc12	95	95
COc1c(Cl)cc(Cl)c2c(=O)n(N)cnc12	99	93
Oc1cccc2ccc(CNCCc3c[nH]cn3)nc12	101	43
Oc1c(-c2ccccc2F)cc(Cl)c2cccnc12	96	54
CCN(CC)Cc1ccc2c(Cl)cc(Cl)c(O)c2n1	74	70
COc1cccc(-c2cc(Cl)c3cccnc3c2O)c1	83	71
Oc1c(-c2ccccc2)cc(Cl)c2cccnc12	93	72
O=[N+]([O-])c1cccc(-c2cc(Cl)c3cccnc3c2O)c1	92	78
O=C(CNC(=O)c1cc(O)c2cccc(O)c2n1)NCCc1c[nH]cn1	98	89
Oc1c(I)cc(-c2ccccc2C(F)(F)F)c2cccnc12	91	90
Oc1ccc(/C=C/c2ccc3cccc(O)c3n2)cc1	100	75
COc1ccccc1-c1cc(-c2ccccc2OC)c2cccnc2c1O	100	52
Oc1ccc(CCc2ccc3cccc(O)c3n2)cc1	89	86
Oc1c(-c2ccc(F)cc2)cc(Cl)c2cccnc12	103	75
Oc1cccc2ccc(-c3ccccn3)nc12	107	75
CN(CCc1ccccn1)Cc1ccc2cccc(O)c2n1	97	57
Oc1cccc2ccc(CN(CCc3c[nH]cn3)Cc3ccccn3)nc12	98	27
O/N=C/c1ccc2c(Cl)cc(Cl)c(O)c2n1	91	70
Cc1cc(C)c2cccnc2c1O	86	85
COc1ccccc1-c1cc(I)c(O)c2ncccc12	91	35
Oc1cccc2ccc(CNCc3ccccn3)nc12	96	67
Oc1cccc2ccc(CN(CCc3c[nH]cn3)Cc3c[nH]cn3)nc12	97	26
Cc1ccc2cccc(O)c2n1	98	58
CCCn1c(CNC)nc2c(O)c(Cl)cc(Cl)c2c1=O	110	102

Reference: patent US20100069393A1, “METHOD OF TREATMENT AND AGENTS USEFUL FOR SAME” (PRANA BIOTECHNOLOGY LIMITED, priority 2006, published 2010)
